Reference: patent US20170173106A1, “Polypeptide Fragments of 168A-T2 and Compositions Comprising Them for Use in Treating Cancer” (GENE SIGNAL INTERNATIONAL SA, priority 2014, published 2017)

Assays:
HUVECs [1] = assay: Capillaries formation by HUVECs on Matrigel; assay type: cell-based, human; settings: 6.5 μM, 13 μM and 33 μM, 18 h
Method: Evaluating the formation of capillaries on Matrigel® was performed by angiogenesis test in vitro described in Grant et al (1989 Cell 58, 933-943). Matrigel® was dropped down the wells of the 96 well plates and maintained for 30 min at 37° C. for the Matrigel® solidification. HUVECs cells were then seeded and 50 μL, of peptide added.
Plates were then incubated for 18 hrs at 37° C. cells were then washed with calcein solution (50 μL/well at 8 μM) and incubated for 20 min. HUVECs alive metabolize calcein in a green fluorescent component.
Peptides were added to the culture medium (EGM2-MV) at concentrations 6.5 μM, 13 μM and 33 μM after inoculation of cells. Plates were incubated at 37° C. for 18 h. Fluorescence labeling was achieved by addition of calcein. Pictures were shot with a fluorescence microscope equipped with a camera (zoom ×40).

CD9P-1-CD151 complex = molecular target: T1, CD9P-1-CD151 complex (Homo sapiens, UniProt P48509+Q9P2B2); assay: Immunoprecipitation in HUVECs: CD9P-1 with CD151; assay type: cell-based; settings: 33 μM; 2 hrs
T1 construct: endogenous in cells; host or cells: HUVEC
T1 sequence (Q9P2B2 26-879): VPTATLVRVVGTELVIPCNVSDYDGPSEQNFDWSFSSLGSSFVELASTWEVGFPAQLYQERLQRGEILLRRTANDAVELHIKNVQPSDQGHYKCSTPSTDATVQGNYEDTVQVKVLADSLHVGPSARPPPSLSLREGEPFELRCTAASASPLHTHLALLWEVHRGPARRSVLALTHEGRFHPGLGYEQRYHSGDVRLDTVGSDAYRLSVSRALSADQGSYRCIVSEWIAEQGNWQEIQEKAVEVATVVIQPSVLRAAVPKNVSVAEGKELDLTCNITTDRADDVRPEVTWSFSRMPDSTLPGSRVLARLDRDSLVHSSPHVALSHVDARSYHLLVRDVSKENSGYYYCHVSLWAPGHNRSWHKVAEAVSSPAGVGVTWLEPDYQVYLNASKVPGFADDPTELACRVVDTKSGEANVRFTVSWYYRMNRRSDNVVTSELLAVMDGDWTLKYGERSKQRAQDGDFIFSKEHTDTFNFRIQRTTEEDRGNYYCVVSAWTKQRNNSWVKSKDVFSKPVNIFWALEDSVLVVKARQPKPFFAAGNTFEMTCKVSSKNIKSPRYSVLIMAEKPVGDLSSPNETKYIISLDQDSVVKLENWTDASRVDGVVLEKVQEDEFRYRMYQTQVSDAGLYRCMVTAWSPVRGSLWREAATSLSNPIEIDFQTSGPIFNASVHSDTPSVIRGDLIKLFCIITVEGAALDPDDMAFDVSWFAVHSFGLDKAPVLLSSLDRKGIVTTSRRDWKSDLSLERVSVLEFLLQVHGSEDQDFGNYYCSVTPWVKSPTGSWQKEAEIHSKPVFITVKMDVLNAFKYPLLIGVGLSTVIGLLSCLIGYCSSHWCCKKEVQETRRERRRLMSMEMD
T1 sequence (P48509 1-253): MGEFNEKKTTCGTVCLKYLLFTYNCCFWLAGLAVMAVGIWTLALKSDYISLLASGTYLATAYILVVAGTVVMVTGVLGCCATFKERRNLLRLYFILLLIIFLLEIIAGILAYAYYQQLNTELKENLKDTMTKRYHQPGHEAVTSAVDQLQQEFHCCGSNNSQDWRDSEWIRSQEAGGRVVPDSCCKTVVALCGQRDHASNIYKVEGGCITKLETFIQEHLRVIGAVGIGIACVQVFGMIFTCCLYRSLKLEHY
Method: FIG. 13 is a photograph representing the dissociation of CD9-CD9P-1, CD9P-1-CD151 and CD9-CD151 complexes by P3 in HUVECs. HUVECs incubated for 2 h with 33 μM P3, PCT or solvent in EGM2-MV medium were lysed in brij 97 buffer, then CD81, CD9 or CD151 were immunoprecipitated with the corresponding antibody. Line A: Western blot results obtained with anti-CD9P-1 antibody from immunoprecipitated CD81, CD9 and CD151. Line B: Western blot results obtained with anti-CD9 antibody from immunoprecipitated CD81, CD9 and CD151. Line C: Western blot results obtained with anti-CD151 antibody from immunoprecipitated CD81, CD9 and CD151. PCT: control peptide. IP: immunoprecipitation.
To study more precisely the effect of P3 on the associations of tetraspanins CD9, CD81, and CD151 between them and with CD9P-1, immunoprecipitation (IP) experiments were performed. In the control experiment (with the solvent), CD9P-1 co-precipitated with CD9 and CD81. A weak co-precipitation was observed between […] and CD151. The associations between tetraspanins and CD9P-1 are not modified under PCT condition. However, the interactions between CD9P-1 and CD9 and between CD9P-1 and CD151 are decreased while the HUVECs are incubated for 2 hrs with 33 μM of P3. The association between CD9P-1 and CD81 is not modified by P3 (FIG. 13A).

HUVECs [2] = assay: Cellular proliferation test (MTT) on HUVECs; assay type: cell-based, human; settings: 48 h
Method: Evaluation of cellular proliferation was performed using 4,5-diMethylThiazol-2-yl)-2,5 diphenylTetrazolium bromide (MTT) test. After 18 hrs of culture, the media was changed by EBM2 supplemented with gentamycine and 5% SVF. Different concentrations of peptides were added under a volume of 10 μL/well. Cells were incubated for 48 hrs at 37° C. MTT was added (50 μL/well) to the cells for 3 hrs.
Cells were grown for 48 h in EGM2-MV and proliferation was quantified by MTT assay.

## NQKGCYDLVT (control peptide) [PCT]
HUVECs [1]
  capillary tubes formation (capillaries length and junctions number): no effect
CD9P-1-CD151 complex
  interaction between CD9P-1 and CD151: not modified
HUVECs [2]
  effect on HUVECs proliferation: No effect
